pIC50: −log10 of the molar value.
Experiments:
SGLT1 = target: T1, SGLT1 (Homo sapiens, UniProt P13866); assay: SGLT1 activity measurement: 14C-AMG uptake in BHK cells transfected with SGLT1; assay type: cell-based; conditions: AMG 50 μM, 37° C., 90 min
T1 construct: expressed in transfected cells
T1 sequence (P13866 1-664): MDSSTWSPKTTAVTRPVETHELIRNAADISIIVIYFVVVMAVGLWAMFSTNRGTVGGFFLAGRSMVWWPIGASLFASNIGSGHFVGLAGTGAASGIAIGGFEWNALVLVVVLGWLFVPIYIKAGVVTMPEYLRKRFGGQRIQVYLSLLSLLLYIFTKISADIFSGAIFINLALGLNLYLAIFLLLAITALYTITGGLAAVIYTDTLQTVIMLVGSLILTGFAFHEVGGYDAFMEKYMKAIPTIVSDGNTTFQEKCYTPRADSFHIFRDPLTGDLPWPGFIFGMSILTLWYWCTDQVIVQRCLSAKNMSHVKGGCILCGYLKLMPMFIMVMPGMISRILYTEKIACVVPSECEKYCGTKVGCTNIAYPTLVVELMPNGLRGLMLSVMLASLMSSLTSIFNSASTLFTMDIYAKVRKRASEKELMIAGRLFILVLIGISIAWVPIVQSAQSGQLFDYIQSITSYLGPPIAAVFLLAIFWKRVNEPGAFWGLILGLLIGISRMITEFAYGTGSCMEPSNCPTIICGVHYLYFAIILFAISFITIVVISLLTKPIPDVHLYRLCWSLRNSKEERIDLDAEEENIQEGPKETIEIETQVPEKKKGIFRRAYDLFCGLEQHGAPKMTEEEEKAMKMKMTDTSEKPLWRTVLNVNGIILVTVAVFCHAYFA
Summary of the method: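 BHK21 cells stably transfected with human SLC5A1 were incubated with 14C-AMG (added solution at 50 μM) ± compound for 90 min at 37 °C. The buffer was 140 mM NaCl, HEPES/Tris, pH 7.4. Lysed-cell radioactivity was counted by scintillation, and non-specific uptake was measured in sodium-free sucrose buffer.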

SGLT2 = target: T2, SGLT2 (Homo sapiens, UniProt P31639); assay: SGLT2 activity measurement: 14C-AMG uptake in BHK cells transfected with SGLT2; assay type: cell-based; conditions: AMG 2 mM, 37° C., 90 min
T2 construct: expressed in transfected cells
T2 sequence (P31639 1-672): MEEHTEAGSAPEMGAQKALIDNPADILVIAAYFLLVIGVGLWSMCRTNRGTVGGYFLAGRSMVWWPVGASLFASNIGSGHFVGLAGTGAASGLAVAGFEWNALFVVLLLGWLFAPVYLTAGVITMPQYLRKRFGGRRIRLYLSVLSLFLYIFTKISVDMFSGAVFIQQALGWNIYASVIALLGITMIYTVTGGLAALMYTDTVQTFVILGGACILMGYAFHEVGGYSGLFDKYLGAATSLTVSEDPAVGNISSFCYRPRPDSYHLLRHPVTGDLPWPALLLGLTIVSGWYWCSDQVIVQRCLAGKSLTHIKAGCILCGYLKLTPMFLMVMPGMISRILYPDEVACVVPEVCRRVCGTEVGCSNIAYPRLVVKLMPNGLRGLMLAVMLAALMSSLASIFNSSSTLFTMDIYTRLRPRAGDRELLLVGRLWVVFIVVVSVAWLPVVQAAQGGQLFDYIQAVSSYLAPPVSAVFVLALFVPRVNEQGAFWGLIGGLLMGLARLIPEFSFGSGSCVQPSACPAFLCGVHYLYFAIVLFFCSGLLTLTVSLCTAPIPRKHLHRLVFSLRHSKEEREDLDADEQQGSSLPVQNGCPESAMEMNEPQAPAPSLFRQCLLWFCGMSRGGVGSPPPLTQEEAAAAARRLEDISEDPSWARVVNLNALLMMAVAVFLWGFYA
Summary of the method: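 BHK21 cells stably expressing human SGLT2 took up 14C-AMG (added as 2 mM solution) ± compound for 90 min at 37 °C in Na+-containing HEPES/Tris buffer, pH 7.4. Uptake was measured by scintillation counting after lysis. Non-specific uptake was defined in sodium-free sucrose buffer.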

Row | Compound | pIC50 (SGLT1) | pIC50 (SGLT2)
1 | CCc1cc(OCCO)cc(OCC(N)=O)c1-c1nc2ccc(F)cn2c1Nc1c(C)cccc1C [Compound A195, 2-[2-(Aminocarbonylmethoxy)-4-(2-hydroxy-ethoxy)-6-ethylphenyl]-3-(2,6-dimethylphenyl-amino)-6-fluoroimidazo[1,2-a]pyridine] | < 5.00 | 6.00 to 8.00
2 | CCOc1cc(CC)c(-c2nc3ccc(F)cn3c2Nc2c(C)cccc2C)c(OCC(N)=O)c1 [Compound A196, 2-[2-(Aminocarbonylmethoxy)-4-ethoxy-6-ethyl-phenyl]-3-(2,6-dimethylphenylamino)-6-fluoro-imidazo[1,2-a]pyridine] | < 5.00 | 6.00 to 8.00
3 | COc1cc(Cl)c(-c2nc3ccc(F)cn3c2Nc2c(C)cccc2C)c(OCC(N)=O)c1 [Compound A197, 2-[2-(Aminocarbonylmethoxy)-4-methoxy-6-chlorophenyl]-3-(2,6-dimethylphenylamino)-6-fluoroimidazo[1,2-a]pyridine] | < 5.00 | 6.00 to 8.00
4 | CCc1cc(OC2COC(=O)O2)cc(OCC(N)=O)c1-c1nc2ccc(F)cn2c1Nc1c(C)cccc1C (stereo not shown) [Compound A198, 2-[2-(Aminocarbonylmethoxy)-4-(2-oxo-1,3-dioxolan-4-yloxy)-6-ethylphenyl]-3-(2,6-dimethyl-phenylamino)-6-fluoroimidazo[1,2-a]pyridine] | 5.00 to 6.00 | 6.00 to 8.00
5 | COc1cc(OC)c(-c2nc3ccc(F)cn3c2Nc2c(C)cccc2C)c(OCC(N)=O)c1 [Compound A199, 2-[2-(Aminocarbonylmethoxy)-4-methoxy-6-methoxyphenyl]-3-(2,6-dimethylphenylamino)-6-fluoroimidazo[1,2-a]pyridine] | < 5.00 | 6.00 to 8.00
6 | COc1cc(OC)c(-c2nc3ccc(F)cn3c2Nc2c(C)cc(F)cc2C)c(OCC(N)=O)c1 [Compound A200, 2-[2-(Aminocarbonylmethoxy)-4-methoxy-6-methoxyphenyl]-3-(2,6-dimethyl-4-fluorophenyl-amino)-6-fluoroimidazo[1,2-a]pyridine] | < 5.00 | 6.00 to 8.00
7 | COc1cc(C)c(-c2nc3ccc(F)cn3c2Nc2c(C)cccc2C)c(OCC(N)=O)c1OC [Compound A201, 2-[2-(Aminocarbonylmethoxy)-3,4-dimethoxy-6-methylphenyl]-3-(2,6-dimethylphenylamino)-6-fluoroimidazo[1,2-a]pyridine] | < 5.00 | 5.00 to 6.00
8 | CCc1cc(OC)cc(OCC(N)=O)c1-c1nc2ccccn2c1Nc1c(C)cccc1C [Compound A202, 2-[2-(Aminocarbonylmethoxy)-4-methoxy-6-ethylphenyl]-3-(2,6-dimethylphenylamino)-imidazo[1,2-a]pyridine] | 5.00 to 6.00 | 6.00 to 8.00
9 | CCc1cc(OC)cc(OCC(N)=O)c1-c1nc2ccccn2c1Nc1c(C)cc(F)cc1C [Compound A203, 2-[2-(Aminocarbonylmethoxy)-4-methoxy-6-ethylphenyl]-3-(2,6-dimethyl-4-fluorophenyl-amino)imidazo[1,2-a]pyridine] | 5.00 to 6.00 | 6.00 to 8.00
10 | COc1cc(C)c(-c2nc3ccc(F)cn3c2Nc2c(C)cccc2C)c(OCC(N)=O)c1 [Compound A204, 2-[2-(Aminocarbonylmethoxy)-4-methoxy-6-methylphenyl]-3-(2,6-dimethylphenylamino)-6-fluoroimidazo[1,2-a]pyridine] | 5.00 to 6.00 | 6.00 to 8.00

Next, values leading:

Row | pIC50 (SGLT1) | pIC50 (SGLT2) | Compound
11 | 5.00 to 6.00 | 6.00 to 8.00 | COc1cc(C)c(-c2nc3ccc(F)cn3c2Nc2c(Cl)cccc2Cl)c(OCC(N)=O)c1 [Compound A205, 2-[2-(Aminocarbonylmethoxy)-4-methoxy-6-methylphenyl]-3-(2,6-dichlorophenylamino)-6-fluoroimidazo[1,2-a]pyridine]
12 | < 5.00 | 6.00 to 8.00 | COc1cc(C)c(-c2nc3cccc(C)n3c2Nc2c(C)cccc2C)c(OCC(N)=O)c1 [Compound A206, 2-[2-(Aminocarbonylmethoxy)-4-methoxy-6-methylphenyl]-3-(2,6-dimethylphenylamino)-5-methylimidazo[1,2-a]pyridine]
13 | < 5.00 | 6.00 to 8.00 | COc1cc(C)c(-c2nc3cccc(N)n3c2Nc2c(C)cccc2C)c(OCC(N)=O)c1 [Compound A207, 2-[2-(Aminocarbonylmethoxy)-4-methoxy-6-methylphenyl]-3-(2,6-dimethylphenylamino)-5-aminoimidazo[1,2-a]pyridine]
14 | < 5.00 | 6.00 to 8.00 | Cc1cccc(C)c1Nc1c(-c2c(C)cc(OCC(O)CO)cc2OCC(N)=O)nc2ccc(F)cn12 (stereo not shown) [Compound A208, 2-[2-(Aminocarbonylmethoxy)-4-(2,3-dihydroxy-propoxy)-6-methylphenyl]-3-(2,6-dimethylphenyl-amino)-6-fluoroimidazo[1,2-a]pyridine]
15 | < 5.00 | 5.00 to 6.00 | Cc1cccc(C)c1Nc1c(-c2ccccc2OCC(N)=O)nc2ccc(C#N)cn12 [Compound A209, 2-[2-(Aminocarbonylmethoxy)phenyl]-3-(2,6-dimethylphenylamino)-6-cyanoimidazo[1,2-a]-pyridine]
16 | < 5.00 | < 5.00 | Cc1cccc(C)c1Nc1c(-c2ccccc2OCC(N)=O)nc2cc(C#N)ccn12 [Compound A210, 2-[2-(Aminocarbonylmethoxy)phenyl]-3-(2,6-dimethylphenylamino)-7-cyanoimidazo[1,2-a]-pyridine]
17 | < 5.00 | 6.00 to 8.00 | COc1ccc(-c2nc3ccc(F)cn3c2Nc2c(C)cccc2C)c(OCC(N)=O)c1 [Compound A211, 2-[2-(Aminocarbonylmethoxy)-4-methoxy-phenyl]-3-(2,6-dimethylphenylamino)-6-fluoro-imidazo[1,2-a]pyridine]
18 | < 5.00 | 6.00 to 8.00 | COc1ccc(-c2nc3ccc(F)cn3c2Nc2c(C)cc(F)cc2C)c(OCC(N)=O)c1 [Compound A212, 2-[2-(Aminocarbonylmethoxy)-4-methoxy-phenyl]-3-(2,6-dimethyl-4-fluorophenylamino)-6-fluoroimidazo[1,2-a]pyridine]
19 | < 5.00 | 6.00 to 8.00 | Cc1cccc(C)c1Nc1c(-c2c(C)cc(OS(=O)(=O)N(C)C)cc2OCC(N)=O)nc2ccc(F)cn12 [Compound A213]
20 | < 5.00 | 6.00 to 8.00 | COc1cc(C)c(-c2nc3ccc(F)cn3c2Nc2c(C)cccc2OC)c(OCC(N)=O)c1 [Compound A214, 2-[2-(Aminocarbonylmethoxy)-4-methoxy-6-methylphenyl]-3-(2-methoxy-6-methylphenyl-amino)-6-fluoroimidazo[1,2-a]pyridine]
21 | < 5.00 | 6.00 to 8.00 | CCc1cc(OC)cc(OCC(N)=O)c1-c1nc2ccc(F)cn2c1Nc1c(C)cccc1OC [Compound A215, 2-[2-(Aminocarbonylmethoxy)-4-methoxy-6-ethylphenyl]-3-(2-methoxy-6-methylphenyl-amino)-6-fluoroimidazo[1,2-a]pyridine]
22 | < 5.00 | 6.00 to 8.00 | CCc1cc(OCC(O)CO)cc(OCC(N)=O)c1-c1nc2ccc(F)cn2c1Nc1c(C)cccc1C (stereo not shown) [Compound A216, 2-[2-(Aminocarbonylmethoxy)-4-(2,3-dihydroxy-propoxy)-6-ethylphenyl]-3-(2,6-dimethylphenyl-amino)-6-fluoroimidazo[1,2-a]pyridine]
23 | 5.00 to 6.00 | 6.00 to 8.00 | CCc1cc(OC)cc(OCC(N)=O)c1-c1nc2ccc(F)cn2c1Nc1c(C)ccc(Cl)c1C [Compound A217, 2-[2-(Aminocarbonylmethoxy)-4-methoxy-6-ethylphenyl]-3-(3-chloro-2,6-dimethylphenyl-amino)-6-fluoroimidazo[1,2-a]pyridine]

Source: US8258151B2, “3-aminoimidazo [1,2-A] pyridine derivatives as SGLT inhibitors” (Merck Patent GmbH, priority 2006, dated 2012)
